This passage reports IC50 results from patent US20070049593A1 (priority 2004, published 2007).

By IC50 is commonly meant the concentration that inhibits the measured activity by half.

Counter-ions that a name gives are not always drawn.

The target in the first experiment is T1, HCV polymerase (Hepatitis C virus genotype 1b, UniProt P26663).
T1 construct: a region encoding NS5B (J Virol 1991 March, 65(3), 1105-13, 544 amino acids after deletion of 47 amino acids on the C-terminal); 6xHis (C); made in house; host or cells: Escherichia coli
T1 sequence (P26663 2420-2963): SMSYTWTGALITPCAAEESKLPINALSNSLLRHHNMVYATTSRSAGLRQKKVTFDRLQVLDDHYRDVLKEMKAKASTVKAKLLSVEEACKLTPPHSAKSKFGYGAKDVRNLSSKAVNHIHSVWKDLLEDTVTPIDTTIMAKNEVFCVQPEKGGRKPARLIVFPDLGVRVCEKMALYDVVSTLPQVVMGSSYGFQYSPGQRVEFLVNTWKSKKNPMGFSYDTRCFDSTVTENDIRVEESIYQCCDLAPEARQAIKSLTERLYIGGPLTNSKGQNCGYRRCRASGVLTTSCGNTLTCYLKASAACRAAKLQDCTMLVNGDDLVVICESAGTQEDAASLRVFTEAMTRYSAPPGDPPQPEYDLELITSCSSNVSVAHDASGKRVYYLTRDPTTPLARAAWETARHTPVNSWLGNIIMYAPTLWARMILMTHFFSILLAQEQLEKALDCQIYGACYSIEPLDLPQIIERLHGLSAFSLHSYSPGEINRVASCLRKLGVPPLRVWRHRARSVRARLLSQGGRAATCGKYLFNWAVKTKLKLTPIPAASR
The experiment in a line: biochemical. Also noted: species or system HCV BK strain.
Details: not given
In outline: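 His-tagged NS5B (BK strain, 47-aa C-terminal deletion, E. coli-expressed) at 0.5 μg/ml copied 5 μg/ml run-off RNA bearing the HCV 3′ UTR with 2 μM UTP plus [3H]UTP, 50 μM ATP/GTP, in pH 7.5 Tris with 5 mM MgCl2, 25 °C, 90 min. TCA-precipitated RNA was counted and IC50 calculated.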
Compound `COc1ccc2c(c1)N(CC(C)C)CCn1c-2c(C2CCCCC2)c2ccc(C(=O)NC3(C(=O)Nc4ccc(/C=C/C(=O)O)cc4)CCC3)cc21` [Example 1-484, (E)-3-[4-({1-[(13-cyclohexyl-5-isobutyl-3-methoxy-6,7-dihydro-5H-benzo[5,6][1,4]diazepino[7,1-a]indole-10-carbonyl)amino]cyclobutanecarbonyl}amino)phenyl]acrylic acid] came in with an IC50 below 100 nM.

In the case of `O=C(O)c1ccc2c(C3CCCCC3)c3n(c2c1)CCN(CCN1CCC[C@H](COc2ccccc2)C1)c1ccccc1-3` [Example 1-485, 13-cyclohexyl-5-[2-((S)-3-phenoxymethylpiperidin-1-yl)ethyl]-6,7-dihydro-5H-benzo[5,6][1,4]diazepino[7,1-a]indole-10-carboxylic acid dihydrochloride], the half-inhibitory concentration (IC50) is below 100 nM.

With `O=C(O)c1ccc2c(C3CCCCCC3)c3n(c2c1)CCN(CCN1CCCCC1)c1cc(Cl)ccc1-3` [Example 1-486, 3-chloro-13-cycloheptyl-5-[2-(piperidin-1-yl)ethyl]-6,7-dihydro-5H-benzo[5,6][1,4]diazepino[7,1-a]indole-10-carboxylic acid], the concentration for half-maximal inhibition (IC50) was below 100 nM.

`Cc1ccc2c(c1)N(CCC13CCC(CC1)N3Cc1ccccc1)CCn1c-2c(C2CCCCC2)c2ccc(C(=O)O)cc21` [Example 1-487, 5-[2-(7-benzyl-7-azabicyclo[2.2.1]hept-1-yl)ethyl]-13-cyclohexyl-3-methyl-6,7-dihydro-5H-benzo[5,6][1,4]diazepino[7,1-a]indole-10-carboxylic acid]: the 50% inhibitory concentration (IC50) was below 100 nM.

`Cc1ccc2c(c1)N(CCC13CCC(CC1)N3)CCn1c-2c(C2CCCCC2)c2ccc(C(=O)O)cc21` [Example 1-488, 5-[2-(7-azabicyclo[2.2.1]hept-1-yl)ethyl]-13-cyclohexyl-3-methyl-6,7-dihydro-5H-benzo[5,6][1,4]diazepino[7,1-a]indole-10-carboxylic acid monohydrochloride] gave an IC50 below 100 nM.

`Cc1ccc2c(c1)N(CCC13CCC(CC1)N3CC(=O)O)CCn1c-2c(C2CCCCC2)c2ccc(C(=O)O)cc21` [Example 1-489, 5-[2-(7-carboxymethyl-7-azabicyclo[2.2.1]hept-1-yl)ethyl]-13-cyclohexyl-3-methyl-6,7-dihydro-5H-benzo[5,6][1,4]diazepino[7,1-a]indole-10-carboxylic acid] gave an IC50 below 100 nM.

As to `N#Cc1ccc2c(c1)N(CCN1CCCCC1)CCn1c-2c(C2CCCCC2)c2ccc(C(=O)O)cc21` [Example 1-490, 3-cyano-13-cyclohexyl-5-[2-(piperidin-1-yl)ethyl]-6,7-dihydro-5H-benzo[5,6][1,4]diazepino[7,1-a]indole-10-carboxylic acid monohydrochloride], the IC50 was below 100 nM.

`NC(=O)c1ccc2c(c1)N(CCN1CCCCC1)CCn1c-2c(C2CCCCC2)c2ccc(C(=O)O)cc21` [Example 1-491, 3-carbamoyl-13-cyclohexyl-5-[2-(piperidin-1-yl)ethyl]-6,7-dihydro-5H-benzo[5,6][1,4]diazepino[7,1-a]indole-10-carboxylic acid monohydrochloride] yielded an IC50 below 100 nM.

Consider `Cc1ccc2c(c1)N(CCC1CCCCC1)CCn1c-2c(C2CCCCC2)c2ccc(C(=O)O)cc21` [Example 1-492, 13-cyclohexyl-5-(2-cyclohexylethyl)-3-methyl-6,7-dihydro-5H-benzo[5,6][1,4]diazepino[7,1-a]indole-10-carboxylic acid], for which the 50% inhibitory concentration (IC50) is below 100 nM.

The compound `CCN(CC)CCCCN1CCn2c(c(C3CCCCC3)c3ccc(C(=O)O)cc32)-c2ccc(C)cc21` [Example 1-493, 13-cyclohexyl-5-(4-diethylaminobutyl)-3-methyl-6,7-dihydro-5H-benzo[5,6][1,4]diazepino[7,1-a]indole-10-carboxylic-acid dihydrochloride] had an IC50 below 100 nM.

`Cc1ccc2c(c1)N(CCN1CCC[C@@H](CCO)C1)CCn1c-2c(C2CCCCC2)c2ccc(C(=O)O)cc21` [Example 1-494, 13-cyclohexyl-5-{2-[(S)-3-(2-hydroxyethyl)piperidin-1-yl)ethyl}-3-methyl-6,7-dihydro-5H-benzo[5,6][1,4]diazepino[7,1-a]indole-10-carboxylic acid dihydrochloride] displayed an IC50 below 100 nM.

Compound `O=C(O)c1ccc2c(c1)N(CCN1CCCCC1)CCn1c-2c(C2CCCCC2)c2ccc(C(=O)O)cc21` [Example 1-495, 13-cyclohexyl-5-[2-(piperidin-1-yl)ethyl]-6,7-dihydro-5H-benzo[5,6][1,4]diazepino[7,1-a]indole-3,10-dicarboxylic acid monohydrochloride] had an IC50 below 100 nM.

Consider `CN1CCn2c(c(C3CCCCC3)c3ccc(C(=O)O)cc32)-c2ccc(OCCCN3CCCCC3)cc21` [Example 1-496, 13-cyclohexyl-5-methyl-3-[3-(piperidin-1-yl)propoxy]-6,7-dihydro-5H-benzo[5,6][1,4]diazepino[7,1-a]indole-10-carboxylic acid dihydrochloride], for which the IC50 was below 100 nM.

Regarding `O=C(O)c1ccc2c(C3CCCCC3)c3n(c2c1)CCN(CCN1CCC[C@@H](COc2ccccc2)C1)c1ccccc1-3` [Example 1-497, 13-cyclohexyl-5-[2-((R)-3-phenoxymethylpiperidin-1-yl)ethyl]-6,7-dihydro-5H-benzo[5,6][1,4]diazepino[7,1-a]indole-10-carboxylic acid dihydrochloride], the IC50 is below 100 nM.

`CCOc1ccc2c(c1)N(CCN1CCC[C@@H](COC)C1)CCn1c-2c(C2CCCCC2)c2ccc(C(=O)O)cc21` [Example 1-499, 13-cyclohexyl-3-ethoxy-5-[2-((R)-3-methoxymethylpiperidin-1-yl)ethyl]-6,7-dihydro-5H-benzo[5,6][1,4]diazepino[7,1-a]indole-10-carboxylic acid dihydrochloride]: the IC50 was below 100 nM.

In the case of `CCOc1ccc2c(c1)N(CCN1CCCOCC1)CCn1c-2c(C2CCCCC2)c2ccc(C(=O)O)cc21` [Example 1-500, 13-cyclohexyl-3-ethoxy-5-[2-(1,4-oxazepan-4-yl)ethyl]-6,7-dihydro-5H-benzo[5,6][1,4]diazepino[7,1-a]indole-10-carboxylic acid dihydrochloride], the IC50 was below 100 nM.

`CCOc1ccc2c(c1)N(CCN1CCC(CCOC)CC1)CCn1c-2c(C2CCCCC2)c2ccc(C(=O)O)cc21` [Example 1-501, 13-cyclohexyl-3-ethoxy-5-{2-[4-(2-methoxyethyl)piperidin-1-yl]ethyl}-6,7-dihydro-5H-benzo[5,6][1,4]diazepino[7,1-a]indole-10-carboxylic acid dihydrochloride] came in with an IC50 below 100 nM.

With `COCCC1CCN(CCN2CCn3c(c(C4CCCCC4)c4ccc(C(=O)O)cc43)-c3ccc(C)cc32)CC1` [Example 1-502, 13-cyclohexyl-5-{2-[4-(2-methoxyethyl)piperidin-1-yl]ethyl}-3-methyl-6,7-dihydro-5H-benzo[5,6][1,4]diazepino[7,1-a]indole-10-carboxylic acid dihydrochloride], the IC50 was below 100 nM.

The experiment is the same for the next values; noted with them: 25° C., 90 min; [5,6-3H]UTP incorporation into RNA; read-out: HCV polymerase inhibitory activity IC50.
`CCOc1ccc2c(c1)N(CCN1CCCCCCC1)CCn1c-2c(C2CCCCC2)c2ccc(C(=O)O)cc21` [Example 1-498, 5-[2-(azocan-1-yl)ethyl]-13-cyclohexyl-3-ethoxy-6,7-dihydro-5H-benzo[5,6][1,4]diazepino[7,1-a]indole-10-carboxylic acid monohydrochloride]: the IC50 is below 100 nM.
